Columns and labels:
Conditions in all cases: pH 7.4; 25 °C
Adenosine receptor A1 = biological target: T1, Adenosine receptor A1 (Homo sapiens, UniProt P30542); test: A1 Adenosine Receptor Binding Assay
T1 sequence (P30542 whole entry): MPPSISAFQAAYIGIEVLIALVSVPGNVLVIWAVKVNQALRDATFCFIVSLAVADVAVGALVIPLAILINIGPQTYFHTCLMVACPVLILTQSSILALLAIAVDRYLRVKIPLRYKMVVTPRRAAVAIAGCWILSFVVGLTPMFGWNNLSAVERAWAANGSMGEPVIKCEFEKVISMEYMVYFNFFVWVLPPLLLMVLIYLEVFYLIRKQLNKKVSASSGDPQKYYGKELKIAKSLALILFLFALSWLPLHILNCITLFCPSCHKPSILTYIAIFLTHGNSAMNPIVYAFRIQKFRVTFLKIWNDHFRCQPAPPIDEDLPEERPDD
Protocol: Aliquots of cell membranes (30 ug proteins) were incubated at 25 °C for 180 min in 500 uL of binding buffer (50 mM Tris-HCl, 2 mM MgCl2, 2 units/mL ADA, pH 7.4) containing [3H]DPCPX (3 nM) and six different concentrations of the tested compounds. Non-specific binding was determined in the presence of 50 µM R-PIA. The dissociation constant (Kd) of [3H]DPCPX in human A1 AR CHO cell membranes was 3 nM.

Adenosine receptor A2a = Adenosine receptor A2a (Homo sapiens, UniProt P29274); test: A2A Adenosine Receptor Binding Assay
Protocol: (§1) Aliquots of cell membranes (30 ug) were incubated at 25 °C for 90 min in 500 uL of binding buffer (50 mM Tris-HCl, 2 mm MgCl2, 2 units/mL ADA, pH 7.4) in the presence of 30 nM of [3H]NECA and six different concentrations of the tested compounds. Non-specific binding was determined in the presence of 100 uM R-PIA.

Adenosine receptor A3 = biological target: T2, Adenosine receptor A3 (Homo sapiens, UniProt P0DMS8); test: A3 Adenosine Receptor Binding Assay
T2 sequence (P0DMS8 whole entry): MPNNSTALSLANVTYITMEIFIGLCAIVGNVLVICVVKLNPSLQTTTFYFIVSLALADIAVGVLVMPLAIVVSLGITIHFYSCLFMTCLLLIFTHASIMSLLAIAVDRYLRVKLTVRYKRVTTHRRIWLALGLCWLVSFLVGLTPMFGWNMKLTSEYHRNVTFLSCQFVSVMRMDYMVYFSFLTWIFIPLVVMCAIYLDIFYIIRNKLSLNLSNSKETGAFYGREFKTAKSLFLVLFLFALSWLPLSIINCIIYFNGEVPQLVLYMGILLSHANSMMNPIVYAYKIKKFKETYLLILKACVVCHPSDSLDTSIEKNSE
Protocol: as §1, with “(90” for “(30”, “180” for “90”, “5 mM” for “2 mm”, “MgCl2, 1 mM EDTA,” for “MgCl2,”, “nm” for “nM of”

Adenosine receptor A2a, sequence (P29274 whole entry): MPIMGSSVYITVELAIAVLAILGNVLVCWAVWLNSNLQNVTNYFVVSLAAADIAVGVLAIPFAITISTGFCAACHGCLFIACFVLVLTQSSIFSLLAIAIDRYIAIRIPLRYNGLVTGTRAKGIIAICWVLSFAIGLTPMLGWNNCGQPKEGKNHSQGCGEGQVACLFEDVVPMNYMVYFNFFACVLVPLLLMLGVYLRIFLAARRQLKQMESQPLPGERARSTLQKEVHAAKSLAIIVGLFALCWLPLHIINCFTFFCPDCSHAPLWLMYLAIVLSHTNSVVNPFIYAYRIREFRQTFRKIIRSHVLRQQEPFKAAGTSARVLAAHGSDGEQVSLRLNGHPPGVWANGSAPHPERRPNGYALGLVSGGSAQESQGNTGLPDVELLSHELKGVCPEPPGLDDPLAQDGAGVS

Ki (Adenosine receptor A1)	Ki (Adenosine receptor A2a)	Ki (Adenosine receptor A3)	EC50 (Adenosine receptor A1)	Structure (SMILES)
1200 nM	> 10000 nM	> 10000 nM		Nc1cc(OCc2ccccc2)nc(SCc2ccccc2)n1 [4-amino-6-alkyloxy-2-benzylthiopyrimidines (6)]
1240 nM	> 10000 nM	> 10000 nM	490 nM	CCCOc1cc(N)nc(SCc2ccccc2)n1 [4-amino-6-alkyloxy-2-benzylthiopyrimidines (4)]
1940 nM	> 10000 nM	> 10000 nM	870 nM	CC(C)COc1cc(N)nc(SCc2ccccc2)n1 [4-amino-6-alkyloxy-2-benzylthiopyrimidines (5)]

From BindingDB's records for doi:10.1111/cbdd.12801 (2016)
